Measured values taken from US4275067A, “Decarboxyclavulanic acid thio ethers, their preparation and use” (Beecham Group Limited, priority 1977, dated 1981).
Converted amounts (≈) assume the structure as drawn. Where two headings read alike, the source gives them in different places. Blank lines part the entries; values can stand above or below the molecule they belong to.

What was measured:
Candida albicans = assay: Anti-fungal activity, microtitre method; format: cell-based; details: glucosepeptone broth
Source text: (§1) The anti-fungal activity of the compound of Example 7 was investigated using a microtitre method, with glucosepeptone broth at 1/50 and 1/500 final dilutions of inoculum. The organisms used were Candida albicans and Saccharomyces cerevisiae. The minimum inhibitory concentrations (MIC) are shown below.

Saccharomyces cerevisiae = assay: Anti-fungal activity, microtitre method; format: cell-based; details: glucosepeptone broth
Source text: as §1

Staph. aureus Russell = assay: Antibacterial synergy with ampicillin; format: cell-based; details: ampicillin without inhibitor
[1] = target: T1, β-lactamase (E. coli JT 4) (Escherichia coli, UniProt P62593); assay: β-lactamase inhibition; format: biochemical; details: β-lactamase from E. coli JT 4; read-out: I50 (converted)
T1 construct: Source of β-lactamase; endogenous in cells; host or cells: E. coli JT 4
Protocol: (§2) I50 values were determined using the process described in Belgian Pat. No. 827,926.

[2] = target: T2, β-lactamase (Enterobacter cloacae P 99) (Enterobacter cloacae, UniProt P05364); assay: β-lactamase inhibition; format: biochemical; details: β-lactamase from Enterobacter cloacae P 99; read-out: I50 (converted)
T2 construct: Source of β-lactamase; endogenous in cells; host or cells: Enterobacter cloacae P 99
Protocol: as §2

[3] = target: β-lactamase (Proteus mirabilis C 889); assay: β-lactamase inhibition; format: biochemical; details: β-lactamase from Proteus mirabilis C 889
Protocol: as §2

[4] = target: T3, β-lactamase (Ps. aeruginosa Dalgleish) (Pseudomonas aeruginosa, UniProt P16897); assay: β-lactamase inhibition; format: biochemical; details: β-lactamase from Ps. aeruginosa Dalgleish; read-out: I50 (converted)
T3 construct: Source of β-lactamase; endogenous in cells; host or cells: Ps. aeruginosa Dalgleish
Protocol: as §2

[5] = target: β-lactamase (Pseudomonas aeruginosa A); assay: β-lactamase inhibition; format: biochemical; details: β-lactamase from Pseudomonas aeruginosa A
Protocol: as §2

[6] = target: T4, β-lactamase (Staph. aureus Russell) (Staphylococcus aureus, UniProt P00807); assay: β-lactamase inhibition; format: biochemical; details: β-lactamase from Staph. aureus Russell; read-out: I50 (converted)
T4 construct: Source of β-lactamase; endogenous in cells; host or cells: Staph. aureus Russell
Protocol: as §2

[7] = tested on: Staph. aureus Russell and Klebsiella aerogenes E70; assay: Antibacterial synergy when combined with ampicillin (overall statement); format: cell-based

T3 sequence (P16897 18-288): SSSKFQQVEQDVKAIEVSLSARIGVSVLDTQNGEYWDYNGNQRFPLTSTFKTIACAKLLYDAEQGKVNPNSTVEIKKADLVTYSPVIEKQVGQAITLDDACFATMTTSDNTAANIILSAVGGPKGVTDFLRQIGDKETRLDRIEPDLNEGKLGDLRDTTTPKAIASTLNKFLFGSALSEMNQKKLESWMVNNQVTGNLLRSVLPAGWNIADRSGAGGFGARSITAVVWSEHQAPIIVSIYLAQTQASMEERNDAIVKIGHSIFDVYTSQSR
T1 sequence (P62593 24-286 limits assumed): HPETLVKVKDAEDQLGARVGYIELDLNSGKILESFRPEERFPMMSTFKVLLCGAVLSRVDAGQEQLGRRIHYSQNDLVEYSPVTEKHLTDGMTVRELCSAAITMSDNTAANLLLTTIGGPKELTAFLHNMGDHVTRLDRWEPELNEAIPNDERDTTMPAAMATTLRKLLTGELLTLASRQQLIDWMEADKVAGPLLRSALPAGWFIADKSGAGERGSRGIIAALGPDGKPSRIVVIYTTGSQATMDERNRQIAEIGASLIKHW
T2 sequence (P05364 21-381): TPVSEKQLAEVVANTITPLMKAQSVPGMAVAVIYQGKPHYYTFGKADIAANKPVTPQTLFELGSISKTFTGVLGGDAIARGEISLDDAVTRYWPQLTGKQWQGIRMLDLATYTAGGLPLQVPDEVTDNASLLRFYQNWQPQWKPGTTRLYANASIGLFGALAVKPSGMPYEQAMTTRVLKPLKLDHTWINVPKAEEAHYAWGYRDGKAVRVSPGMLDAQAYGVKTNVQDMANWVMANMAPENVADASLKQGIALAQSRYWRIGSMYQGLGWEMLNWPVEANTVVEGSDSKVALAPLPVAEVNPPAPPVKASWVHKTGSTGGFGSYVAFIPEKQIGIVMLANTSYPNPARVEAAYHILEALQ

- MIC (Candida albicans; Candida albicans, final dilution of inoculum 1/50, read-out: minimum inhibitory concentration (MIC)): 12.5 µg/mL (≈ 48.6 µM)
- minimum inhibitory concentration (MIC) (Candida albicans; final dilution of inoculum 1/500): 12.5 µg/mL (≈ 48.6 µM)
- MIC (Saccharomyces cerevisiae; final dilution of inoculum 1/50, read-out: minimum inhibitory concentration (MIC)): > 100 µg/mL
- MIC (Saccharomyces cerevisiae; final dilution of inoculum 1/500, read-out: minimum inhibitory concentration (MIC)): 100 µg/mL (≈ 389 µM)
SMILES: COC(=O)CCSC/C=C1/CN2C(=O)C[C@H]2O1 [Example 7, (Z)-(5R)-3-[2-(2-Methoxycarbonylethylthio)ethylidene]-4-oxa-1-azabicyclo[3.2.0]hetpan-7-one]

- MIC for ampicillin (Staph. aureus Russell): 250 µg/mL
SMILES: CC1(C)S[C@@H]2[C@H](NC(=O)[C@H](N)c3ccccc3)C(=O)N2[C@H]1C(=O)O [ampicillin]

SMILES: O=C1C[C@H]2O/C(=C\CSc3ccccc3)CN12 [Example 1, (Z, 5R)-3-(2-Phenylthioethylidene)-4-oxa-1-azabicyclo [3.2.0]heptan-7-one]
- IC50 [1]: 1460 nM
- IC50 [2]: 5340 nM
- I50 [3]: 4.4 µg/mL
- IC50 [4]: 2430 nM
- I50 [5]: 2.2 µg/mL
- IC50 [6]: 1010 nM
- antibacterial synergy [7]: active as antibacterial synergists
